Laboratory results: article PMC6152416, “Pharmacological and Toxicological Screening of Novel Benzimidazole-Morpholine Derivatives as Dual-Acting Inhibitors” (Molecules : A Journal of Synthetic Chemistry and Natural …, 2017)
“Also recorded” adds a separate entry of the source. Marks after values point to notes of the source that are not given here.

Legend:
human recombinant MAO-A = biological target: T1, human recombinant MAO-A (Homo sapiens, UniProt P21397); assay: MAO inhibition assay (kynuramine, fluorimetric); assay type: biochemical
T1 sequence (P21397 1-527): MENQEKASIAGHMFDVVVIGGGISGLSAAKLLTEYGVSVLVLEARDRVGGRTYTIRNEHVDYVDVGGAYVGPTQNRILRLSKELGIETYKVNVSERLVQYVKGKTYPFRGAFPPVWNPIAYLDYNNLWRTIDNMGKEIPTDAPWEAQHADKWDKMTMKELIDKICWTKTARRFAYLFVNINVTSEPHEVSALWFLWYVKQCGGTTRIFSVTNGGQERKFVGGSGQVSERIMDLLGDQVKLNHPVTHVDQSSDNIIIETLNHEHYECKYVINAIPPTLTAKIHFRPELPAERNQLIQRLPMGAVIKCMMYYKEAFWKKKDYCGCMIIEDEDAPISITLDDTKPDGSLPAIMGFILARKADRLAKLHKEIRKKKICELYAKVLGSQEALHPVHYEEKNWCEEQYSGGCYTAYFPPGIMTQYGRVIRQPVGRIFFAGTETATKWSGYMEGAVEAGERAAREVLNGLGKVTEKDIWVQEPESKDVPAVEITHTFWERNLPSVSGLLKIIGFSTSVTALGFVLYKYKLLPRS
Description: Enzyme activity assays were performed according to the procedure reported by Matsumoto et al. with slight modifications. In order to prevent the destructive effect of light on MAO enzymes, the assays were performed in 96-well black plates. Phosphate buffer solution (0.1 M, pH = 7.4) was used for preparation of stock solutions (5 mg/mL) of both human recombinant MAO-A and MAO-B enzymes. […] The addition of the test compound solution was followed by addition of either MAO-A or MAO-B enzyme (50 μL/well) solutions. After 10 min of incubation at 37 °C, kynuramine (50 μL/well) was added and enzyme-substrate reaction was initiated. The plate was incubated for 20 min at 37 °C and then reaction was terminated by addition of 2 N NaOH (75 μL/well). The fluorimetric reads from the top was performed at 310 nm excitation and 380 nm emission wavelengths.

MTT cytotoxicity assay = assay type: cell-based, mouse; details: mouse, NIH/3T3 mouse embryonic fibroblast cells, read-out: Cytotoxicity NIH3T3 Cells IC50
Description: (§1) Cytotoxicity was tested using NIH/3T3 mouse embryonic fibroblast cell line (ATCC® CRL-1658™, London, UK). NIH/3T3 cells were incubated according to the supplier’s recommendations. NIH/3T3 cells were seeded as 1 × 10^4 cells into each well of 96-well plates. MTT assay was performed as previously described. The compounds were tested between 1 mM and 0.000316 mM concentrations (1.0, 0.316, 0.10, 0.0316, 0.01, 0.00316, 0.001, 0.000316 mM). The IC50 values were determined by plotting a dose-response curve of inhibition % versus tested concentrations of the compound [62].

[1] = tested on: NIH/3T3 mouse embryonic fibroblast cell line; assay: MTT cytotoxicity assay; assay type: cell-based; details: NIH/3T3
Description: as §1

[2] = tested on: Salmonella typhimurium TA100; assay: Ames MPF genotoxicity assay; assay type: cell-based
Description: (§2) The genotoxicity of selected compounds (2b, 2j, 2m) was determined by Ames assay using Ames MPF 98/100 mutagenicity assay sample kit (Xenometrix AG, Allschwil, Switzerland) as previously described elsewhere. Salmonella typhimurium strains, TA98 (frameshift mutations) and TA100 (base-pair substitutions) were used in the assay. The concentration of the compounds was between 16 and 5000 μg/mL, in accordance with the guideline. Compounds were prepared in six different concentrations (5.0, 2.5, 1.25, 0.625, 0.3125, 0.156 mg/mL) in DMSO. Mutagenic potential was determined in the absence or presence of Aroclor™-1254 induced male Sprague–Dawley rat liver microsomal enzyme (S9) mix (Xenometrix AG). Positive controls without S9 mix were 2-nitrofluorene (2.0 μg/mL) and 4-nitroquinoline N-oxide (0.1 μg/mL), whereas 1.0 μg/mL and 2.5 μg/mL of 2-aminoanthracene solutions were used as positive controls with S9 against TA98 and TA100, respectively. Solvent control was prepared with 4% DMSO. The end of an experiment was determined by the change of the indicator medium colour to yellow, which was originating from the decrease of pH due to revertant bacteria. Yellow wells were counted as positive, and compared with the negative control. Fold induction over the negative control and fold induction over the baseline were calculated (Fold induction over the negative control is accepted as the ratio of the mean number of positive wells for the dose concentration divided by the mean number of positive wells for the zero dose (negative) control. Fold induction over the baseline is accepted as the ratio of the mean number of positive wells for the dose concentration divided by zero dose baseline. The zero-dose baseline is obtained by adding one standard deviation to the mean number of positive wells of the zero dose control. If the baseline is less than 1, the value is set to 1 for calculation).
(§3) Mutagenicity was determined according to the criteria reported previously. For a baseline value of ≤3, significant increases between 2 and 3-fold of the baseline were classified as weak mutagen, and increases ≥3-fold of the baseline were classified as mutagen. […] As a rule, at least two adjacent doses with significant increases or a significant increase at the highest dose level should be observed for a mutagenic compound. All of the doses were compared according to Student’s t-test at p < 0.05 for statistical significance.

[3] = tested on: Salmonella typhimurium TA98; assay: Ames MPF genotoxicity assay; assay type: cell-based
Description: as §2, §3

COc1ccc(-c2nc3ccccc3n2CCN2CCOCC2)cc1 [Compound 2b, 2-(4-Methoxyphenyl)-1-[2-(morpholin-4-yl)ethyl]-1H-benzimidazole]
MAO-A Inhibition (%) (human recombinant MAO-A; 10^-3 M): 29.44% | MAO-A Inhibition (%) (human recombinant MAO-A; 10^-4 M): 24.61% | IC50 (MTT cytotoxicity assay): 316 µM | cytotoxicity in words [1]: non-cytotoxic | REVERTANTS Fold Increase (over Baseline) ([2]; TA100, S9+, 0.156 mg/mL): 0.06 | REVERTANTS Fold Increase (over Baseline) ([2]; TA100, S9+, 0.3125 mg/mL): 0.52 | REVERTANTS Fold Increase (over Baseline) ([2]; TA100, S9+, 0.625 mg/mL): 0.45 | REVERTANTS Fold Increase (over Baseline) ([2]; TA100, S9+, 1.25 mg/mL): 0.26 | REVERTANTS Fold Increase (over Baseline) ([2]; TA100, S9+, 2.5 mg/mL): 0.26 | REVERTANTS Fold Increase (over Baseline) ([2]; TA100, S9+, 5 mg/mL): 0.13 | REVERTANTS Fold Increase (over Baseline) ([2]; TA100, S9−, 0.156 mg/mL): 1.31 *** | REVERTANTS Fold Increase (over Baseline) ([2]; TA100, S9−, 0.3125 mg/mL): 1.37 *** | REVERTANTS Fold Increase (over Baseline) ([2]; TA100, S9−, 0.625 mg/mL): 0.69 | REVERTANTS Fold Increase (over Baseline) ([2]; TA100, S9−, 1.25 mg/mL): 0.62 | REVERTANTS Fold Increase (over Baseline) ([2]; TA100, S9−, 2.5 mg/mL): 0.25 *** | REVERTANTS Fold Increase (over Baseline) ([2]; TA100, S9−, 5 mg/mL): 0.44 * | Ames MPF mutagenicity classification ([2]; TA100, with/without metabolic activation (S9)): non-genotoxic | REVERTANTS Fold Increase (over Baseline) ([3]; TA98, S9+, 0.156 mg/mL): 0.16 | REVERTANTS Fold Increase (over Baseline) ([3]; TA98, S9+, 0.3125 mg/mL): 0.32 | REVERTANTS Fold Increase (over Baseline) ([3]; TA98, S9+, 0.625 mg/mL): 0.00 | REVERTANTS Fold Increase (over Baseline) ([3]; TA98, S9+, 1.25 mg/mL): 0.48 | REVERTANTS Fold Increase (over Baseline) ([3]; TA98, S9+, 2.5 mg/mL): 0.80 | REVERTANTS Fold Increase (over Baseline) ([3]; TA98, S9+, 5 mg/mL): 1.27 | REVERTANTS Fold Increase (over Baseline) ([3]; TA98, S9−, 0.156 mg/mL): 0.69 | REVERTANTS Fold Increase (over Baseline) ([3]; TA98, S9−, 0.3125 mg/mL): 0.75 | REVERTANTS Fold Increase (over Baseline) ([3]; TA98, S9−, 0.625 mg/mL): 0.81 | REVERTANTS Fold Increase (over Baseline) ([3]; TA98, S9−, 1.25 mg/mL): 0.40 | REVERTANTS Fold Increase (over Baseline) ([3]; TA98, S9−, 2.5 mg/mL): 0.40 | REVERTANTS Fold Increase (over Baseline) ([3]; TA98, S9−, 5 mg/mL): 0.75 | Ames MPF mutagenicity classification ([3]; TA98, in the presence/absence of metabolic activation (S9)): non-genotoxic; also recorded: non-mutagenic

Clc1ccc(-c2nc3ccccc3n2CCN2CCOCC2)cc1 [Compound 2c, 2-(4-Chlorophenyl)-1-[2-(morpholin-4-yl)ethyl]-1H-benzimidazole]
MAO-A Inhibition (%) (human recombinant MAO-A; 10^-3 M): 31.58% | MAO-A Inhibition (%) (human recombinant MAO-A; 10^-4 M): 26.17%
